{"source": "PubChem BioAssay (NCI)", "test_in_all_cases": "DTP human tumour cell line panel, 48 h", "key": {"NCI-H522 lung": {"tested_on": "NCI-H522 lung"}, "OVCAR-3 ovarian": {"tested_on": "OVCAR-3 ovarian"}, "UACC-62 melanoma": {"tested_on": "UACC-62 melanoma"}, "SF-268 CNS": {"tested_on": "SF-268 CNS"}, "SNB-75 CNS": {"tested_on": "SNB-75 CNS"}, "U251 CNS": {"tested_on": "U251 CNS"}, "KM20L2 colon": {"tested_on": "KM20L2 colon"}, "COLO 205 colon": {"tested_on": "COLO 205 colon"}, "SK-MEL-2 melanoma": {"tested_on": "SK-MEL-2 melanoma"}, "M14 melanoma": {"tested_on": "M14 melanoma"}, "UO-31 renal": {"tested_on": "UO-31 renal"}, "SK-MEL-28 melanoma": {"tested_on": "SK-MEL-28 melanoma"}, "SF-295 CNS": {"tested_on": "SF-295 CNS"}, "A498 renal": {"tested_on": "A498 renal"}, "DMS 114 small cell lung": {"tested_on": "DMS 114 small cell lung"}, "CCRF-CEM leukemia": {"tested_on": "CCRF-CEM leukemia"}, "RPMI-8226 leukemia": {"tested_on": "RPMI-8226 leukemia"}, "SNB-19 CNS": {"tested_on": "SNB-19 CNS"}, "M19-MEL melanoma": {"tested_on": "M19-MEL melanoma"}, "OVCAR-4 ovarian": {"tested_on": "OVCAR-4 ovarian"}, "RXF 393 renal": {"tested_on": "RXF 393 renal"}, "K-562 leukemia": {"tested_on": "K-562 leukemia"}, "MALME-3M melanoma": {"tested_on": "MALME-3M melanoma"}, "HOP-62 NSCLC": {"tested_on": "HOP-62 NSCLC"}, "SK-OV-3 ovarian": {"tested_on": "SK-OV-3 ovarian"}, "IGROV1 ovarian": {"tested_on": "IGROV1 ovarian"}, "HL-60(TB) leukemia": {"tested_on": "HL-60(TB) leukemia"}, "KM12 colon": {"tested_on": "KM12 colon"}, "HT29 colon": {"tested_on": "HT29 colon"}, "SR leukemia": {"tested_on": "SR leukemia"}, "MOLT-4 leukemia": {"tested_on": "MOLT-4 leukemia"}, "LXFL 529 NSCLC": {"tested_on": "LXFL 529 NSCLC"}, "SNB-78 CNS": {"tested_on": "SNB-78 CNS"}, "ACHN renal": {"tested_on": "ACHN renal"}, "HOP-92 NSCLC": {"tested_on": "HOP-92 NSCLC"}, "OVCAR-5 ovarian": {"tested_on": "OVCAR-5 ovarian"}, "NCI-H23 lung": {"tested_on": "NCI-H23 lung"}, "NCI-H460 lung": {"tested_on": "NCI-H460 lung"}, "UACC-257 melanoma": {"tested_on": "UACC-257 melanoma"}, "LOX IMVI melanoma": {"tested_on": "LOX IMVI melanoma"}, "HCT-15 colon": {"tested_on": "HCT-15 colon"}, "OVCAR-8 ovarian": {"tested_on": "OVCAR-8 ovarian"}, "786-0 renal": {"tested_on": "786-0 renal"}, "HCC-2998 colon": {"tested_on": "HCC-2998 colon"}, "NCI-H226 lung": {"tested_on": "NCI-H226 lung"}, "HCT-116 colon": {"tested_on": "HCT-116 colon"}, "EKVX NSCLC": {"tested_on": "EKVX NSCLC"}, "A549 NSCLC": {"tested_on": "A549 NSCLC"}, "SN12C renal": {"tested_on": "SN12C renal"}, "DLD-1 colon": {"tested_on": "DLD-1 colon"}}, "note": "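Test compounds were applied to cells in 96-well plates for 48 hours at 5 doses. Definition used: TGI = concentration required for complete inhibition of growth.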", "data": [{"smiles": "CCO[C@@H]1OC(=O)[C@@](C)(C(C)=O)[C@@H]1C", "values": [{"measurement": "TGI", "setting": "NCI-H522 lung", "result": "> 100", "unit": "µM"}, {"measurement": "TGI", "setting": "OVCAR-3 ovarian", "result": 31.4, "unit": "µM"}, {"measurement": "TGI", "setting": "UACC-62 melanoma", "result": 53.3, "unit": "µM"}, {"measurement": "TGI", "setting": "SF-268 CNS", "result": 44.1, "unit": "µM"}, {"measurement": "TGI", "setting": "SNB-75 CNS", "result": 25.7, "unit": "µM"}, {"measurement": "TGI", "setting": "U251 CNS", "result": 56.7, "unit": "µM"}, {"measurement": "TGI", "setting": "KM20L2 colon", "result": "> 100", "unit": "µM"}, {"measurement": "TGI", "setting": "COLO 205 colon", "result": "> 100", "unit": "µM"}, {"measurement": "TGI", "setting": "SK-MEL-2 melanoma", "result": 52, "unit": "µM"}, {"measurement": "TGI", "setting": "M14 melanoma", "result": 70.4, "unit": "µM"}, {"measurement": "TGI", "setting": "UO-31 renal", "result": "> 100", "unit": "µM"}, {"measurement": "TGI", "setting": "SK-MEL-28 melanoma", "result": 29.9, "unit": "µM"}, {"measurement": "TGI", "setting": "SF-295 CNS", "result": 66, "unit": "µM"}, {"measurement": "TGI", "setting": "A498 renal", "result": "> 100", "unit": "µM"}, {"measurement": "TGI", "setting": "DMS 114 small cell lung", "result": 68.9, "unit": "µM"}, {"measurement": "TGI", "setting": "CCRF-CEM leukemia", "result": 49.5, "unit": "µM"}, {"measurement": "TGI", "setting": "RPMI-8226 leukemia", "result": 48.6, "unit": "µM"}, {"measurement": "TGI", "setting": "SNB-19 CNS", "result": 68.3, "unit": "µM"}, {"measurement": "TGI", "setting": "M19-MEL melanoma", "result": 40.9, "unit": "µM"}, {"measurement": "TGI", "setting": "OVCAR-4 ovarian", "result": "> 100", "unit": "µM"}, {"measurement": "TGI", "setting": "RXF 393 renal", "result": 70.2, "unit": "µM"}, {"measurement": "TGI", "setting": "K-562 leukemia", "result": "> 100", "unit": "µM"}, {"measurement": "TGI", "setting": "MALME-3M melanoma", "result": 77.5, "unit": "µM"}, {"measurement": "TGI", "setting": "HOP-62 NSCLC", "result": 56.6, "unit": "µM"}, {"measurement": "TGI", "setting": "SK-OV-3 ovarian", "result": "> 100", "unit": "µM"}, {"measurement": "TGI", "setting": "IGROV1 ovarian", "result": "> 100", "unit": "µM"}, {"measurement": "TGI", "setting": "HL-60(TB) leukemia", "result": 78.6, "unit": "µM"}, {"measurement": "TGI", "setting": "KM12 colon", "result": "> 100", "unit": "µM"}, {"measurement": "TGI", "setting": "HT29 colon", "result": 34.6, "unit": "µM"}, {"measurement": "TGI", "setting": "SR leukemia", "result": "> 100", "unit": "µM"}, {"measurement": "TGI", "setting": "MOLT-4 leukemia", "result": 61.1, "unit": "µM"}, {"measurement": "TGI", "setting": "LXFL 529 NSCLC", "result": 47.6, "unit": "µM"}, {"measurement": "TGI", "setting": "SNB-78 CNS", "result": 84.9, "unit": "µM"}, {"measurement": "TGI", "setting": "ACHN renal", "result": "> 100", "unit": "µM"}, {"measurement": "TGI", "setting": "HOP-92 NSCLC", "result": 94.9, "unit": "µM"}, {"measurement": "TGI", "setting": "OVCAR-5 ovarian", "result": "> 100", "unit": "µM"}, {"measurement": "TGI", "setting": "NCI-H23 lung", "result": 28.7, "unit": "µM"}, {"measurement": "TGI", "setting": "NCI-H460 lung", "result": "> 100", "unit": "µM"}, {"measurement": "TGI", "setting": "UACC-257 melanoma", "result": 78.9, "unit": "µM"}]}, {"smiles": "CC(=O)[O-].[O-]c1c(Cl)cc(Cl)cc1/C=N/Nc1ccccn1.[Zn+2]", "values": [{"measurement": "TGI", "setting": "NCI-H522 lung", "result": 20.6, "unit": "µM"}, {"measurement": "TGI", "setting": "OVCAR-3 ovarian", "result": 0.707, "unit": "µM"}, {"measurement": "TGI", "setting": "UACC-62 melanoma", "result": 2.43, "unit": "µM"}, {"measurement": "TGI", "setting": "SNB-75 CNS", "result": "> 100", "unit": "µM"}, {"measurement": "TGI", "setting": "U251 CNS", "result": "> 100", "unit": "µM"}, {"measurement": "TGI", "setting": "LOX IMVI melanoma", "result": "> 100", "unit": "µM"}, {"measurement": "TGI", "setting": "HCT-15 colon", "result": "> 100", "unit": "µM"}, {"measurement": "TGI", "setting": "KM20L2 colon", "result": "> 100", "unit": "µM"}, {"measurement": "TGI", "setting": "OVCAR-8 ovarian", "result": 0.837, "unit": "µM"}, {"measurement": "TGI", "setting": "COLO 205 colon", "result": "> 100", "unit": "µM"}, {"measurement": "TGI", "setting": "SK-MEL-2 melanoma", "result": 1.98, "unit": "µM"}, {"measurement": "TGI", "setting": "UO-31 renal", "result": "> 100", "unit": "µM"}, {"measurement": "TGI", "setting": "SK-MEL-28 melanoma", "result": "> 100", "unit": "µM"}, {"measurement": "TGI", "setting": "SF-295 CNS", "result": 5.41, "unit": "µM"}, {"measurement": "TGI", "setting": "A498 renal", "result": "> 100", "unit": "µM"}, {"measurement": "TGI", "setting": "DMS 114 small cell lung", "result": 0.605, "unit": "µM"}, {"measurement": "TGI", "setting": "786-0 renal", "result": "> 100", "unit": "µM"}, {"measurement": "TGI", "setting": "HCC-2998 colon", "result": "> 100", "unit": "µM"}, {"measurement": "TGI", "setting": "NCI-H226 lung", "result": "> 100", "unit": "µM"}, {"measurement": "TGI", "setting": "SNB-19 CNS", "result": "> 100", "unit": "µM"}, {"measurement": "TGI", "setting": "HCT-116 colon", "result": "> 100", "unit": "µM"}, {"measurement": "TGI", "setting": "M19-MEL melanoma", "result": "> 100", "unit": "µM"}, {"measurement": "TGI", "setting": "K-562 leukemia", "result": "> 100", "unit": "µM"}, {"measurement": "TGI", "setting": "MALME-3M melanoma", "result": "> 100", "unit": "µM"}, {"measurement": "TGI", "setting": "IGROV1 ovarian", "result": "> 100", "unit": "µM"}, {"measurement": "TGI", "setting": "HL-60(TB) leukemia", "result": 0.736, "unit": "µM"}, {"measurement": "TGI", "setting": "EKVX NSCLC", "result": 9.01, "unit": "µM"}, {"measurement": "TGI", "setting": "KM12 colon", "result": "> 100", "unit": "µM"}, {"measurement": "TGI", "setting": "A549 NSCLC", "result": "> 100", "unit": "µM"}, {"measurement": "TGI", "setting": "HT29 colon", "result": "> 100", "unit": "µM"}, {"measurement": "TGI", "setting": "SR leukemia", "result": 0.675, "unit": "µM"}, {"measurement": "TGI", "setting": "MOLT-4 leukemia", "result": 0.581, "unit": "µM"}, {"measurement": "TGI", "setting": "LXFL 529 NSCLC", "result": "> 100", "unit": "µM"}, {"measurement": "TGI", "setting": "HOP-92 NSCLC", "result": 0.803, "unit": "µM"}, {"measurement": "TGI", "setting": "SN12C renal", "result": "> 100", "unit": "µM"}, {"measurement": "TGI", "setting": "OVCAR-5 ovarian", "result": 6.43, "unit": "µM"}, {"measurement": "TGI", "setting": "NCI-H460 lung", "result": "> 100", "unit": "µM"}, {"measurement": "TGI", "setting": "UACC-257 melanoma", "result": "> 100", "unit": "µM"}, {"measurement": "TGI", "setting": "DLD-1 colon", "result": "> 100", "unit": "µM"}]}]}
